How the values were obtained:
[1] = tested on: bhmT 52 nt (SAM-52) (RNA, riboswitch) GGGCAGUUGAACCAUAUUGUGCGCCCUGCAUUUGCUUAAGCACUAAAAAGGA; assay: ITC; details: 100 mM KCl, 10 mM MgCl2, 40 mM HEPES pH 7.2, 298 K
[2] = tested on: metY 55 nt (metY SAM-V riboswitch) (RNA, riboswitch) AGGCGCAUUUGAACUGUAUUGUACGCCUUGCAUAAAGCAAAAGUACUAAAAAAGG; assay: ITC; details: 100 mM KCl, 10 mM MgCl2, 40 mM HEPES pH 7.2, 298 K
[3] = tested on: bhmT 49 nt (SAM-49) (RNA, riboswitch) GGGCAGUUGAACCAUAUUGUGCGCCCUGCAUUUGCUUAAGCACUAAAAA; assay: ITC; details: 100 mM KCl, 10 mM MgCl2; 40 mM HEPES pH 7.2, 298 K; 200 µM SAM titrated into 15 µM RNA
[4] = tested on: metY 53 nt (RNA, riboswitch) AGGCGCAUUUGAACUGUAUUGUACGCCUUGCAUAAAGCAAAAGUACUAAAAAA; assay: ITC; details: 100 mM KCl, 10 mM MgCl2; 40 mM HEPES pH 7.2, 298 K; 200 µM SAM titrated into 15 µM RNA
[5] = tested on: bhmT A50Pur (RNA, riboswitch, purine at A50 (metY numbering; position 47 of strand)) GGGCAGUUGAACCAUAUUGUGCGCCCUGCAUUUGCUUAAGCACUAAAAAGGA; assay: ITC; details: 100 mM KCl, 10 mM MgCl2; 40 mM HEPES pH 7.2, 298 K
[6] = tested on: bhmT U20 4-thiouridine (RNA, riboswitch, 4-thiouridine at U20 (metY numbering; position 18 of strand)) GGGCAGUUGAACCAUAUUGUGCGCCCUGCAUUUGCUUAAGCACUAAAAAGGA; assay: ITC; details: 100 mM KCl, 10 mM MgCl2; 40 mM HEPES pH 7.2, 298 K; 200 µM SAM titrated into 15 µM RNA
[7] = tested on: bhmT A50Ino (RNA, riboswitch, inosine at A50 (metY numbering; position 47 of strand)) GGGCAGUUGAACCAUAUUGUGCGCCCUGCAUUUGCUUAAGCACUAAAAAGGA; assay: ITC; details: 100 mM KCl, 10 mM MgCl2; 40 mM HEPES pH 7.2, 298 K
[8] = tested on: metY 53 nt, 5-bromocytosine (crystallized) (RNA, riboswitch, 5-bromocytidine at 4) AGGCGCAUUUGAACUGUAUUGUACGCCUUGCAUAAAGCAAAAGUACUAAAAAA; assay: X-ray crystallography (2.5 Å); details: co-crystal, space group P4_122
[9] = tested on: bhmT U47Isocytidine (RNA, riboswitch, isocytidine at U47 (metY numbering; position 44 of strand)) GGGCAGUUGAACCAUAUUGUGCGCCCUGCAUUUGCUUAAGCACUAAAAAGGA; assay: ITC; details: 100 mM KCl, 10 mM MgCl2; 40 mM HEPES pH 7.2, 298 K; 200 µM SAM titrated into 15 µM RNA
[10] = tested on: metY U47Isocytidine (RNA, riboswitch, isocytidine at 47 (replaces U47)) AGGCGCAUUUGAACUGUAUUGUACGCCUUGCAUAAAGCAAAAGUACUAAAAAAGG; assay: ITC; details: 100 mM KCl, 10 mM MgCl2; 40 mM HEPES pH 7.2, 298 K; 200 µM SAM titrated into 15 µM RNA
[11] = tested on: bhmT U9 4-thiouridine (RNA, riboswitch, 4-thiouridine at U9 (metY numbering; position 7 of strand)) GGGCAGUUGAACCAUAUUGUGCGCCCUGCAUUUGCUUAAGCACUAAAAAGGA; assay: ITC; details: 100 mM KCl, 10 mM MgCl2; 40 mM HEPES pH 7.2, 298 K; 200 µM SAM titrated into 15 µM RNA
[12] = tested on: metY A50Inosine (RNA, riboswitch, inosine at 50 (replaces A50)) AGGCGCAUUUGAACUGUAUUGUACGCCUUGCAUAAAGCAAAAGUACUAAAAAAGG; assay: ITC; details: 100 mM KCl, 10 mM MgCl2; 40 mM HEPES pH 7.2, 298 K; 200 µM SAM titrated into 15 µM RNA
[13] = tested on: metY A50Pur (RNA, riboswitch, purine at 50 (replaces A50)) AGGCGCAUUUGAACUGUAUUGUACGCCUUGCAUAAAGCAAAAGUACUAAAAAAGG; assay: ITC; details: 100 mM KCl, 10 mM MgCl2; 40 mM HEPES pH 7.2, 298 K
[14] = 200-250 µM SAH titrated into 15 µM RNA

binding [1, 14]	binding [2, 14]	binding [3]	binding [4]	Kd [1] [µM]	Kd [2] [µM]	Kd [5] [µM]	binding [6]	Kd [7] [µM]	binding [8]	binding [9]	binding [10]	binding [11]	binding [12]	Kd [13] [µM]	Structure (SMILES)
no	no	–	–	–	–	–	–	–	–	–	–	–	–	–	Nc1ncnc2c1ncn2[C@@H]1O[C@H](CSCC[C@H](N)C(=O)O)[C@@H](O)[C@H]1O
–	–	no	no	0.50 ± 0.08	4.37 ± 0.21	0.90 ± 0.10	weak	16.8 ± 2.6	yes	no	no	no	weak	14.7 ± 1.8	C[S+](CC[C@H](N)C(=O)O)C[C@H]1O[C@@H](n2cnc3c(N)ncnc32)[C@H](O)[C@@H]1O (stereo partly drawn)

Reference: article PMC6061858 (2018)
